10 compounds from patent US5536645A, “Nutritive medium for the culture of microorganism” (priority 1993, dated 1996) can be followed below.

Read-outs that look alike come from different tables or passages of the source. Ends that are not written are not given here.

Holding throughout (assay type): cell-based
One assay deals with enterococci. Kind of assay: Effect of medium constituents and peptides on growth of enterococci. As to conditions: for base requirements of the enterococci: supplied as precursors; for growth: addition of peptides to the medium. From the text:
It is moreover known to affect the activity of the sulfamides and trimethoprim family (Then R. et al., Mecanisme moleculaire de la bactericidie; sulfamides et trimethoprime [Molecular mechanism of bactericidal activity; sulfamides and trimethoprim]. Bactericidie 1990, Editions Maloine, Paris).
The purine and pyrimidine bases can be supplied in several forms, that is to say in the form of precursors, of free bases, of nucleosides or of nucleotides. […] The proportions between purines and pyrimidines were defined in relation to those described for the synthesis of RNA by Neidhart (Neidhart et al. (1990) Physiology of the bacterial cell. A molecular approach. Sinauer associates, inc. U.S.A.), taking account of the absence of thymidine, that is to say purines/pyrimidines in a ratio of between 1.5 and 2.2 and advantageously of 1.8. The final concentrations were then optimized essentially to satisfy the growth of the staphylococci and of the enterococci.

The subject of assay [1] is Proteus, Morganella, Providencia and Serratia. Kind of assay: Effect of polyamines on growth. The conditions noted are these: preferential concentration 0.75 mg/l. On the procedure:
The polyamines are present in the eukaryotic and prokaryotic cells and participate in numerous biological reactions including the synthesis of nucleic acids and of proteins (see Tabor C. W. and Tabor H. (1985) Polyamines in Microorganisms, Microbiol. Rev. 49: 81-99). Putrescine, spermine and spermidine were tested. […] FIG. 7 illustrates the effect of spermidine on the growth of Proteus mirabilis.

Another assay deals with P. aeruginosa. Kind of assay: Equivalent MIC of antibiotics in VITEK cards, gram-negative bacteria (Table 3). As to conditions: for MIC: Pseudomonas aeruginosa. Here is the method: (§1) With the determination of the sensitivity to antibiotics in mind, a suspension of 0.5 MF (Mac Farland) in physiological water was prepared from bacterial colonies selected in Petri dishes, reading being carried out on an ATB 1550 densitometer marketed by BIOMERIEUX (ATB trade mark). The suspension obtained was respectively diluted to 1/100th in the medium of the invention and Mueller-Hinton medium. VITEK cards (VITEK trade mark) containing different antibiotics at 10 concentrations were filled in vacuo into a VITEK apparatus marketed by BIOMERIEUX-VITEK. The cards were incubated for 12 hours in a VITEK incubator/reader marketed by BIOMERIEUX-VITEK. The growth kinetics were visualized and interpreted and an equivalent MIC was determined (equivalent MIC: equivalent minimum inhibitory concentration, that is to say the smallest concentration for which no bacterial growth is detected by the apparatus).
(§2) IST refers to the medium of the invention and MH signifies Mueller-Hinton medium.
(§3) S, I and R respectively signify "sensitive", "intermediate" and "resistant" with reference to the critical concentrations defined by the NCCLS (National Committee for Clinical Laboratory Standards).

A further assay deals with S. marcescens. Described as above. The conditions noted are these: for MIC: Serratia marcescens, 12 h. Here is the method:
as §1, §2, §3

In another assay the test system is E. coli. The assay is described as follows: microbe, parasite or virus in culture. As to conditions: for MIC: Escherichia coli, 12 h, read-out: Equivalent MIC. Here is the method: as §1, §2, §3
Assay [2] relates to enterococci and streptococci of group B. The assay is described as follows: Effect of lipoic acid on growth (FIG. 6). The conditions noted are these: 0.01 mg/l in FIG. 6. From the text:
FIG. 6 illustrates the effect of lipoic acid on the growth of Enterococcus faecalis.

Another assay concerns Serratia marcescens. Kind of assay: Effect of serine concentration on growth (FIG. 1). As to conditions: serine concentration increased by a factor of 10 in IST medium.
Another assay relates to S. epidermidis. The assay is described as follows: microbe, parasite or virus in culture. As to conditions: for MIC: Staphylococcus epidermidis, 12 h, read-out: Equivalent MIC. Here is the method:
as §1, §2
(§4) *A range of concentration, of ratio 2, was tested for each antibiotic in
(§5) each of the abovementioned concentration margins.
as §3

The next assay has as its system S. aureus. The assay is described as follows: microbe, parasite or virus in culture. As to conditions: for MIC: Staphylococcus aureus, read-out: Equivalent MIC. Here is the method: as §1, §2, §4, §5, §3
A further assay deals with E. faecalis. Kind of assay: Equivalent MIC of antibiotics in VITEK cards, gram-positive bacteria (Table 4). As to conditions: for MIC: Enterococcus faecalis, 12 h. On the procedure: as §1, §2, §4, §5, §3

Excerpt for Serratia marcescens: Curve b represents the growth with the IST medium for a concentration of serine increased by a factor of 10. Curve c represents the growth obtained with the Mueller-Hinton medium.
The qualitative and quantitative composition of amino acids was then optimized for the different species in order to obtain growth in conformity with that obtained with the reference Mueller-Hinton medium. […] The final concentrations of amino acids were defined, after having verified their importance on the final biomass, taking account of the biomass obtained in Mueller-Hinton medium.

Turning to `Nc1nc2ncc(CNc3ccc(C(=O)N[C@@H](CCC(=O)O)C(=O)O)cc3)nc2c(=O)[nH]1` [Folic acid, folic acid], the “importance for the growth of enterococci” value in the assay on enterococci (E. faecalis, E. faecium and E. hirae, 0.005 mg/l in FIG. 5) is “importance for the growth of enterococci”.
For the compound `NCCCCNCCCN` [Spermidine, spermidine], the growth result in assay [1] was “chosen according to the results, especially for the growth of Proteus, Morganella, Providencia and Serratia”.
As for `CC(C)(O/N=C(\C(=O)N[C@@H]1C(=O)N2C(C(=O)[O-])=C(C[n+]3ccccc3)CS[C@H]12)c1csc(N)n1)C(=O)O` [ceftazidim], the “NCCLS Category” value is “R” in the assay on P. aeruginosa (AP 9, IST medium); “R” with P. aeruginosa (AP 9, MH medium); “S” in the assay with P. aeruginosa (AP 13, IST medium); “S” in the assay with P. aeruginosa (AP 13, MH medium); “S” in the assay with P. aeruginosa (ATCC 27853, IST medium); “S” with P. aeruginosa (ATCC 27853, MH medium). The “NCCLS Category” value in the assay on P. aeruginosa (CDC 2275, IST medium) was “S”; in the assay on P. aeruginosa (CDC 2275, MH medium), “S”; in the assay with S. marcescens (CDC 2102, IST medium) it was “S”; in the assay on S. marcescens (CDC 2102, MH medium), “S”; with S. marcescens (CDC 2162, IST medium), “S”; with S. marcescens (CDC 2162, MH medium) it was “S”. Moreover, the “NCCLS Category” value in the assay on S. marcescens (CDC 2240, IST medium) is recorded as “S”; in the assay on S. marcescens (CDC 2240, MH medium), “S”; with E. coli (CDC 2008, IST medium), “S”; with E. coli (CDC 2008, MH medium), “S”; in the assay on E. coli (CDC 2254, IST medium), “S”; with E. coli (CDC 2254, MH medium), “S”. Moreover, the MIC in the assay with P. aeruginosa (12 h, read-out: Equivalent MIC, AP 9, IST medium) turned out to be 32 µg/mL; with P. aeruginosa (12 h, read-out: Equivalent MIC, AP 9, MH medium), 32 µg/mL; in the assay with P. aeruginosa (12 h, read-out: Equivalent MIC, AP 13, IST medium), 4 µg/mL; in the assay with P. aeruginosa (12 h, read-out: Equivalent MIC, AP 13, MH medium) it was 4 µg/mL; with P. aeruginosa (12 h, read-out: Equivalent MIC, CDC 2275, IST medium) it was 4 µg/mL; with P. aeruginosa (12 h, read-out: Equivalent MIC, CDC 2275, MH medium), 4 µg/mL. In addition, the MIC in the assay with P. aeruginosa (ATCC27853, 12 h, read-out: Equivalent MIC, ATCC 27853, IST medium) stood at 1 µg/mL; in the assay on P. aeruginosa (ATCC27853, 12 h, read-out: Equivalent MIC, ATCC 27853, MH medium), 2 µg/mL; in the assay with S. marcescens (read-out: Equivalent MIC, CDC 2102, IST medium), 0.5 µg/mL; with S. marcescens (read-out: Equivalent MIC, CDC 2102, MH medium) it was 0.25 µg/mL; in the assay with S. marcescens (read-out: Equivalent MIC, CDC 2162, IST medium), 2 µg/mL; in the assay on S. marcescens (read-out: Equivalent MIC, CDC 2162, MH medium), 2 µg/mL. For the same compound, the MIC with S. marcescens (read-out: Equivalent MIC, CDC 2240, IST medium) is 0.5 to 1 µg/mL; in the assay on S. marcescens (read-out: Equivalent MIC, CDC 2240, MH medium) it was 1 µg/mL; in the assay on E. coli (CDC 2008, IST medium), below 0.06 µg/mL; in the assay on E. coli (CDC 2008, MH medium), below 0.06 µg/mL; in the assay on E. coli (CDC 2254, IST medium) it was 0.5 µg/mL; in the assay with E. coli (CDC 2254, MH medium), 1 µg/mL.
As for `O=c1[nH]cnc2nc[nH]c12` [hypoxanthine], the “base requirements of the enterococci” value in the assay on enterococci is recorded as “does not satisfy the base requirements of the enterococci”.
With `O=C(O)CCCCC1CCSS1` (centres unmarked) [lipoic acid], the growth entry in assay [2] is “allowing the growth of the enterococci and of the streptococci of group B to be increased to a maximum”.
In the case of `N[C@@H](CO)C(=O)O` [serine], the bacterial growth result in the assay with Serratia marcescens is “near to that obtained with Mueller-Hinton medium”.
On to `O=c1cc[nH]c(=O)[nH]1` [uracil], for which the “base requirements of the enterococci” value in the assay with enterococci is given as “does not satisfy the base requirements of the enterococci”.
For `CN[C@H](CC(C)C)C(=O)N[C@H]1C(=O)N[C@@H](CC(N)=O)C(=O)N[C@H]2C(=O)N[C@H]3C(=O)N[C@H](C(=O)N[C@H](C(=O)O)c4cc(O)cc(O)c4-c4cc3ccc4O)[C@H](O)c3ccc(c(Cl)c3)Oc3cc2cc(c3O[C@@H]2O[C@H](CO)[C@@H](O)[C@H](O)[C@H]2O[C@H]2C[C@](C)(N)[C@H](O)[C@H](C)O2)Oc2ccc(cc2Cl)[C@H]1O` [vancomycin], the “NCCLS Category” value is reported as “S” in the assay with S. epidermidis (CDC 2024, IST medium); “S” with S. epidermidis (CDC 2024, MH medium); “S” in the assay on S. epidermidis (CDC 2105, IST medium); “S” in the assay on S. epidermidis (CDC 2105, MH medium); “S” in the assay with S. epidermidis (CDC 2234, IST medium); “S” in the assay with S. epidermidis (CDC 2234, MH medium). Besides, the “NCCLS Category” value is given as “S” in the assay on S. aureus (ATCC 29213, IST medium); “S” in the assay with S. aureus (ATCC 29213, MH medium); “S” in the assay with S. aureus (CDC 2194, IST medium); “S” with S. aureus (CDC 2194, MH medium); “S” with S. aureus (CDC 2215, IST medium); “S” in the assay on S. aureus (CDC 2215, MH medium). In addition, the “NCCLS Category” value is recorded as “I” in the assay with E. faecalis (CDC 2017, IST medium); “I” with E. faecalis (CDC 2017, MH medium); “S” with E. faecalis (CDC 2225, IST medium); “S” with E. faecalis (CDC 2225, MH medium); “S” with E. faecalis (CDC 2230, IST medium); “S” in the assay on E. faecalis (CDC 2230, MH medium). For the same compound, the MIC worked out at 4 µg/mL with S. epidermidis (CDC 2024, IST medium); 4 µg/mL with S. epidermidis (CDC 2024, MH medium); 4 µg/mL in the assay on S. epidermidis (CDC 2105, IST medium); 2 µg/mL in the assay with S. epidermidis (CDC 2105, MH medium); 2 µg/mL in the assay on S. epidermidis (CDC 2234, IST medium); 2 µg/mL in the assay with S. epidermidis (CDC 2234, MH medium). For the same compound, the MIC in the assay with S. aureus (12 h, CDC 2194, IST medium) amounted to 2 µg/mL; in the assay on S. aureus (12 h, CDC 2194, MH medium), 1 µg/mL; with S. aureus (12 h, CDC 2215, IST medium) it was 2 µg/mL; with S. aureus (12 h, CDC 2215, MH medium), 1 µg/mL; with S. aureus (ATCC29213, 12 h, ATCC 29213, IST medium), 2 µg/mL; in the assay with S. aureus (ATCC29213, 12 h, ATCC 29213, MH medium), 2 µg/mL. The MIC with E. faecalis (CDC 2017, IST medium) is 8 µg/mL; in the assay on E. faecalis (CDC 2017, MH medium), 16 µg/mL; with E. faecalis (CDC 2225, IST medium), 4 µg/mL; in the assay with E. faecalis (CDC 2225, MH medium), 4 µg/mL; in the assay with E. faecalis (CDC 2230, IST medium), 1 µg/mL; in the assay with E. faecalis (CDC 2230, MH medium), 1 to 2 µg/mL.
ASDAKAYDTEV: the growth result in the assay on enterococci is “interesting results for other strains of Enterococci”.
Consider EDRPPLFGQGTV, for which the growth entry in the assay with enterococci is “interesting results for other strains of Enterococci”.
